Laboratory results from patent US20240325398A1, “COMBINATION THERAPIES” (Infinity Pharmaceuticals, Inc., priority 2014, published 2024).

Tests used:
[1] = system: Compound 1-resistant SU-DHL-4 clones; test: CTG (Cell Titer Glo) IC50, Compound 1-resistant clones; format: cell-based; details: Compound 1-resistant clones versus control cells, FIG. 10
Protocol: The DMSO stock for each compound was diluted to 5 mM or 1 mM with DMSO. A 1:1000 dilution was performed into the plated cells (10 uL) for a final of 1 uM or 5 uM (final DMSO […]). Cells were counted 2 times per week and cell densities were adjusted back to 2.5×10^5 c/mL as needed. Media/Compound was replenished as needed and Media/Compound was replaced 1× per week. Compound treatment lasted for 28 days. Compound was washed out for 1 week and cells were subsequently used in assays to determine resistance after 4 weeks of treatment.
The cell line pool was treated with compound for an additional 28 days prior to subcloning. Altogether, the cell line pool was under selective pressure for a total of 8 weeks.
Cell lines were subcloned at 3, 1, and 0.3 cells per well (cpw). 1:10 of conditioned medium (CM) was included in medium in addition to corresponding DMSO control or compound. During subcloning optimization experiments, the SU-DHL-4 cell line could only be subcloned in the presence of 1:10 conditioned medium. […]
All cell lines subcloned grew out. […] Once expanded in a 24 well plate, the 12 clones per cell line were evaluated for viability by flow using the Dead_Live kit (Invitrogen #L23101).
Clones for parent, DMSO and Compound 1-R cell lines were selected based on their P1 vs P2 distribution determined by FSCH vs SSCH scatter plot. […]

CLL = test: Clinical trial, Compound 1 monotherapy in a patient with CLL; format: in vivo, human; details: one CLL patient
[2] = Tolerability and pharmacokinetics of Compound 1 with dexamethasone in non-tumor bearing mice; format: in vivo
Protocol: The effects of a combination of Compound 1 and dexamethasone were assessed in vivo in non-tumor bearing mice. Dexamethasone is an inducer of CYP2B6 and CYP3A4 and thus might be expected to decrease exposure of Compound 1. Tolerability of the combination was assessed in non-tumor bearing CD17.SCID female mice. Treatment was carried out for 14 days using the following treatment groups: 1) Vehicle 1 (5% NMP+95% PEG400)+Vehicle 2 (saline); 2) Compound 1 (50 mg/kg, QD, PO)+Vehicle 2; 3) Vehicle 1+Dex 1 (5 mg/kg, Q3D, IP); 4) Compound 1+Dex 1; 5) Vehicle 1+Dex 2 (1 mg/kg, Q3D, IP); 6) Compound 1+Dex 2. PEG400 refers to polyethylene glycol-400. NMP refers to N-methyl-2-pyrrolidone. Dex refers to dexamethasone. Q3D refers to administration every third day. PO refers to oral administration. IP refers to intraperitoneal administration. Plasma samples were collected on day 14 at the trough, 1, 2, 4, and 6 h post dose for pharmacokinetic analysis.

DoHH2 tumor = format: in vivo
Protocol: In particular, tolerability of the combination treatment was assessed in DoHH2 tumor bearing CB17.SCID female mice (a follicular lymphoma subcutaneous model). […] Plasma samples were collected on day 7 (trough, 1, 2, 4, and 6 h post dose) and on day 14 (2 h post final dose).

TMD8 = test: Combination study, ATPLite 72 h, dose matrix (Synergy Score, CI50); details: TMD8
U-2932 = test: as above
Protocol: Cells are thawed from a liquid nitrogen preserved state. Once cells have been expanded and divide at their expected doubling times, screening begins. Cells are seeded in growth media in either black 1536-well or 384-well tissue culture treated plates. Cells are then equilibrated in assay plates via centrifugation and placed in incubators attached to the Dosing Modules at 37° C. for 24 hours before treatment. […] These Tzero (To) plates are read using ultra-sensitive luminescence on Envision plate readers (Perkin Elmer). Treated assay plates are incubated with compound for 72 hours. After 72 hours, plates are developed for endpoint analysis using ATPLite. All data points are collected via automated processes, quality controlled and analyzed using Zalicus software.
where T is treated cell count and V is untreated (vehicle) cell count (at 72 hours). I ranges from 0% (when T=V) to 100% (when T=0). […] The measure of effect in the experiment can be the inhibition of cellular response relative to the untreated level (vehicle alone). […] The inhibition ranges from 0% at the untreated level to 100% when T=0. Inhibition levels are negative for agents that actually increase levels. Other effect measures, such as an activity ratio r=T/V may be more appropriate for some assays. When activity ratios (e.g, fold increase over stimulated control) are being used, the effect can be measured using an induction 1=ln(T/V). With this definition, all effect expressions are the same as for inhibition.
Growth Inhibition (GI) is used as a measure of cell viability. […] A GI reading of 100% represents complete growth inhibition—T72 compound-treated and T0 vehicle signals are matched. […] A GI reading of 200% represents complete death of all cells in the culture well. Compounds reaching an activity plateau of GI 200% are considered cytotoxic. GI is calculated by applying the following test and equation:
Combination analysis data were collected in a 6×6 dose matrix. Synergy is calculated by comparing a combination's response to those of its single compound, against the drug-with-itself dose-additive reference model. Deviations from dose additivity may be assessed visually on an isobologram or numerically with a Combination Index (CI). […] Additive effect is CI=1.0. […] Antagonistic effect is CI>1.0.
To measure combination effects in excess of Loewe additivity, a scalar measure to characterize the strength of synergistic interaction termed the Synergy Score is devised. The Synergy Score is calculated as:
The fractional inhibition for each component agent and combination point in the matrix is calculated relative to the median of all vehicle-treated control wells. The Synergy Score equation integrates the experimentally-observed activity volume at each point in the matrix in excess of a model surface numerically derived from the activity of the component agents using the Loewe model for additivity. Additional terms in the Synergy Score equation (above) are used to normalize for various dilution factors used for individual agents and to allow for comparison of synergy scores across an entire experiment. The inclusion of positive inhibition gating or an Idata multiplier removes noise near the zero effect level, and biases results for synergistic interactions at that occur at high activity levels.
Loewe Volume (Loewe Vol) is used to assess the overall magnitude of the combination interaction in excess of the Loewe additivity model. Loewe Volume is particularly useful when distinguishing synergistic increases in a phenotypic activity (positive Loewe Volume) versus synergistic antagonisms (negative Loewe Volume). […] This model defines additivity as a non-synergistic combination interaction where the combination dose matrix surface should be indistinguishable from either drug crossed with itself. The calculation for Loewe additivity is:

Mino = test: as above; details: combination with Compound 1
KARPAS-299 = test: as above; details: combination with Compound 1
[3] = combination with CAL-101, Example 2
[4] = combination with Cmpd 1, Example 2
[5] = combination with Compound 1, 72 h

C[C@H](Nc1ncnc2[nH]cnc12)c1cc2cccc(Cl)c2c(=O)n1-c1ccccc1 [Compound 1, (S)-3-(1-((9H-purin-6-yl)amino)ethyl)-8-chloro-2-phenylisoquinolin-1(2H)-one]
average IC50 for inhibition of the resistant cells versus control cells [1]: higher
Absolute lymphocyte count (ALC) (CLL; 25 mg bid, C5D1, ALC=257 at C1D1): 134
clinical response (CLL; 25 mg bid, after C7 (cycle 7), STK11 copy loss detected at C5D1): progressed
clinical response (CLL; monotherapy 25 mg bid, C3D1 (cycle 3, day 1)): partial response
Compound 1 plasma exposure ([2]; 50 mg/kg Compound 1 PO in combination with dexamethasone 5 mg/kg Q3D, versus Compound 1 alone): decrease
mean plasma concentration of Compound 1 ([2]; 50 mg/kg Compound 1 plus 1 mg/kg dexamethasone (Q3D) versus 50 mg/kg Compound 1 alone): relatively similar
decrease of Compound 1 plasma exposure ([2]; co-administered with higher dose of dexamethasone, 5 mg/kg): about 30%
degree of Compound 1 exposure ([2]; single agent versus combination with dexamethasone 1 mg/kg): similar
tumor volume (DoHH2 tumor; Compound 1 50 mg/kg QD PO plus dexamethasone 5 mg/kg Q3D IP, after 12 days, versus vehicle, Compound 1 alone or dexamethasone alone, FIG. 8): lower
tumor growth inhibition (DoHH2 tumor; Compound 1 50 mg/kg QD in combination with dexamethasone 5 mg/kg Q3D IP, compared to either monotherapy): greater tumor growth inhibition
tolerability of the combination (body weight) (DoHH2 tumor; co-administration of dexamethasone and Compound 1 in mice): tolerable

C[C@@H]1C[C@H]2[C@@H]3CCC4=CC(=O)C=C[C@]4(C)[C@@]3(F)[C@@H](O)C[C@]2(C)[C@@]1(O)C(=O)CO [dexamethasone, (8S,9R,10S,11S,13S,14S,16R,17R)-9-Fluoro-11,17-dihydroxy-17-(2-hydroxyacetyl)-10,13,16-trimethyl-6,7,8,9,10,11,12,13,14,15,16,17-dodecahydro-3H-cyclopenta[a]phenanthren-3-one]
CI50 growth inhibition (TMD8; [3]): S (S=0.01 to <0.5)
CI50 inhibition (TMD8; [3]): S (S=0.01 to <0.5)
Synergy Score growth inhibition (TMD8; [3]): A3 (A3=>3)
Synergy Score inhibition (TMD8; [3]): A3 (A3=>3)
CI50 growth inhibition (TMD8; [4]): T (T=0.5 to <0.7)
CI50 inhibition (TMD8; [4]): S (S=0.01 to <0.5)
Synergy Score growth inhibition (TMD8; [4]): A3 (A3=>3)
Synergy Score inhibition (TMD8; [4]): A3 (A3=>3)
CI50 growth inhibition (TMD8; [5]): U (U=0.7 to <1)
CI50 inhibition (TMD8; [5]): S (S=0.01 to <0.5)
Synergy Score growth inhibition (TMD8; [5]): A3 (A3=>3)
Synergy Score inhibition (TMD8; [5]): A3 (A3=>3)
CI50 growth inhibition (U-2932; [3]): S (S=0.01 to <0.5)
CI50 inhibition (U-2932; [3]): S (S=0.01 to <0.5)
Synergy Score growth inhibition (U-2932; [3]): A2 (A2=1 to <3)
Synergy Score inhibition (U-2932; [3]): A2 (A2=1 to <3)
CI50 growth inhibition (U-2932; [4]): S (S=0.01 to <0.5)
CI50 inhibition (U-2932; [4]): S (S=0.01 to <0.5)
Synergy Score growth inhibition (U-2932; [4]): A3 (A3=>3)
Synergy Score inhibition (U-2932; [4]): A2 (A2=1 to <3)
CI50 growth inhibition (U-2932; [5]): S (S=0.01 to <0.5)
CI50 inhibition (U-2932; [5]): S (S=0.01 to <0.5)
Synergy Score growth inhibition (U-2932; [5]): A3 (A3=>3)
Synergy Score inhibition (U-2932; [5]): A2 (A2=1 to <3)
CI50 growth inhibition (Mino): S (S=0.01 to <0.5)
CI50 inhibition (Mino): S (S=0.01 to <0.5)
Synergy Score growth inhibition (Mino): A3 (A3=>3)
Synergy Score inhibition (Mino): A2 (A2=1 to <3)
Synergy Score growth inhibition (KARPAS-299): A1 (A1=0.0001 to <1)
Synergy Score inhibition (KARPAS-299): A1 (A1=0.0001 to <1)
